Data as given in ChEMBL document CHEMBL3124821, “Activity of caffeic acid derivatives against Candida albicans biofilm” (Bioorg Med Chem Lett, 2014).
In brackets after ≈: the same amount, converted by molar mass.

Legend:
in vitro = settings: human, NCI-H292 cells
Description: Cytotoxicity against human NCI-H292 cells assessed as reduction in viable cells by MTT assay

Candida albicans [1] = experiment: Antifungal activity against early stage preformed Candida albicans ATCC 10231 biofilm by XTT reduction assay; type: functional
Candida albicans [2] = experiment: Antifungal activity against mature preformed Candida albicans ATCC 10231 biofilm by XTT reduction assay; type: functional
Candida albicans [3] = experiment: Antifungal activity against planktonically grown Candida albicans ATCC 10231 by CLSI M27 A3 broth microdilution method; type: functional
Candida albicans [4] = experiment: Inhibition of biofilm formation of Candida albicans ATCC 10231 by XTT reduction assay; type: functional
Candida albicans [5] = experiment: Ratio of compound MIC to fluconazole MIC for biofilm formation of Candida albicans ATCC 10231 by XTT reduction assay; type: functional

Q: What does the source list for `O=C(/C=C/c1ccccc1)OCc1ccc([N+](=O)[O-])o1`?
A: CC50 (in vitro): 174 µg/mL (≈ 638 µM); MIC50 (Candida albicans [1]): 32 µg/mL (≈ 117 µM); MIC50 (Candida albicans [2]): 64 µg/mL (≈ 234 µM); MIC50 (Candida albicans [3]): 2 µg/mL (≈ 7.32 µM); MIC50 (Candida albicans [4]): 32 µg/mL (≈ 117 µM)

Q: With `CCCOC(=O)/C=C/c1ccc(O)c(O)c1` as the molecule, how does the MIC50 (Candida albicans [1]) read?
A: 256 µg/mL (≈ 1150 µM)

Q: What about the MIC50 (Candida albicans [2]) of the same molecule?
A: 256 µg/mL (≈ 1150 µM)

Q: And the MIC50 (Candida albicans [3])?
A: 128 µg/mL (≈ 576 µM)

Q: What about the MIC50 (Candida albicans [4]) of the same molecule?
A: 256 µg/mL (≈ 1150 µM)

Q: Which MIC50 (Candida albicans [2]) does the source give for `CCOC(=O)/C=C/c1ccc(O)c(O)c1` [ETHYL CAFFEATE] here?
A: 256 µg/mL (≈ 1230 µM)

Q: And the MIC50 (Candida albicans [3])?
A: 128 µg/mL (≈ 615 µM)

Q: What about the MIC50 (Candida albicans [4]) of the same molecule?
A: 256 µg/mL (≈ 1230 µM)

Q: Which results are given for `COc1ccc(OC(=O)/C=C/c2ccc(O)c(O)c2)cc1F`?
A: MIC50 (Candida albicans [2]): 256 µg/mL (≈ 841 µM); MIC50 (Candida albicans [3]): 128 µg/mL (≈ 421 µM); MIC50 (Candida albicans [4]): 256 µg/mL (≈ 841 µM)

Q: Which results are given for `OC(Cn1cncn1)(Cn1cncn1)c1ccc(F)cc1F` [FLUCONAZOLE]?
A: MIC50 (Candida albicans [1]): 256 µg/mL (≈ 836 µM); MIC50 (Candida albicans [2]): 256 µg/mL (≈ 836 µM); MIC50 (Candida albicans [3]): 0.5 µg/mL (≈ 1.63 µM); MIC50 (Candida albicans [4]): 128 µg/mL (≈ 418 µM)

Q: For `O=C(OCc1ccc([N+](=O)[O-])o1)c1ccc(O)c(O)c1`, which Ratio (Candida albicans [5]) is on record?
A: 8

Q: And the CC50 (in vitro)?
A: 132 µg/mL (≈ 473 µM)

Q: What about the MIC50 (Candida albicans [1]) of the same molecule?
A: 64 µg/mL (≈ 229 µM)

Q: And the MIC50 (Candida albicans [2])?
A: 64 µg/mL (≈ 229 µM)

Q: And the MIC50 (Candida albicans [3])?
A: 16 µg/mL (≈ 57.3 µM)

Q: And the MIC50 (Candida albicans [4])?
A: 16 µg/mL (≈ 57.3 µM)

Q: What does the source list for `COC(=O)/C=C/c1ccc(O)c(O)c1` [METHYLCAFFEATE]?
A: MIC50 (Candida albicans [2]): 256 µg/mL (≈ 1320 µM); MIC50 (Candida albicans [3]): 128 µg/mL (≈ 659 µM); MIC50 (Candida albicans [4]): 256 µg/mL (≈ 1320 µM)

Q: With `O=C(/C=C/c1ccc(O)c(O)c1)OCc1ccc([N+](=O)[O-])o1` as the molecule, how does the CC50 (in vitro) read?
A: 192 µg/mL (≈ 627 µM)

Q: And the MIC50 (Candida albicans [1])?
A: 64 µg/mL (≈ 210 µM)

Q: What about the MIC50 (Candida albicans [2]) of the same molecule?
A: 128 µg/mL (≈ 419 µM)

Q: And the MIC50 (Candida albicans [3])?
A: 16 µg/mL (≈ 52.4 µM)

Q: And the MIC50 (Candida albicans [4])?
A: 32 µg/mL (≈ 105 µM)

Q: What does the source list for `O=C(CCc1ccc(O)c(O)c1)OCc1ccc([N+](=O)[O-])o1`?
A: CC50 (in vitro): 257 µg/mL (≈ 835 µM); MIC50 (Candida albicans [1]): 128 µg/mL (≈ 417 µM); MIC50 (Candida albicans [2]): 128 µg/mL (≈ 417 µM); MIC50 (Candida albicans [3]): 64 µg/mL (≈ 208 µM); MIC50 (Candida albicans [4]): 128 µg/mL (≈ 417 µM)

Q: Which results are given for `O=C(O)/C=C/c1ccc(O)c(O)c1` [CAFFEIC ACID]?
A: MIC50 (Candida albicans [1]): 256 µg/mL (≈ 1420 µM); MIC50 (Candida albicans [2]): 256 µg/mL (≈ 1420 µM); MIC50 (Candida albicans [3]): 128 µg/mL (≈ 710 µM); MIC50 (Candida albicans [4]): 256 µg/mL (≈ 1420 µM)

Q: With `CC(C)COC(=O)/C=C/c1ccc(O)c(O)c1` as the molecule, how does the MIC50 (Candida albicans [2]) read?
A: 256 µg/mL (≈ 1080 µM)

Q: What about the MIC50 (Candida albicans [3]) of the same molecule?
A: 128 µg/mL (≈ 542 µM)

Q: What about the MIC50 (Candida albicans [4]) of the same molecule?
A: 256 µg/mL (≈ 1080 µM)
